According to the NIST ThermoML archive (doi:10.1016/j.jct.2014.12.020):

Test: wn = mass fraction of the nth substance listed
Details: 100 kPa, Liquid; for viscosity: Concentric cylinders viscometry; for mass density: Vibrating tube method

CCCCCC(=O)[O-].C[N+](C)(C)CCO [2-hydroxy-N,N,N-trimethylethanaminium hexanoate] + O
Details	mass density, w2 = 0.058 [kg/m3]	mass density, w2 = 0.091 [kg/m3]	mass density, w2 = 0.161 [kg/m3]	mass density, w2 = 0.198 [kg/m3]	viscosity, w2 = 0.058 [mPa·s]	viscosity, w2 = 0.091 [mPa·s]	viscosity, w2 = 0.161 [mPa·s]	viscosity, w2 = 0.198 [mPa·s]
293.15 K	1018	1021	1026	1026	1187.4	640.3	202.1	166.8
298.15 K	1015	1018	1023	1023	831.9	462.6	151.2	125.3
303.15 K	1012	1015	1020	1021	598.1	340.7	114.8	95.6
308.15 K	1009	1012	1017	1018	439	255.5	88.6	74.1
313.15 K	1007	1009	1014	1015	328.4	195.3	69.7	58.4
318.15 K	1004	1006	1011	1012	249.1	150.8	55.1	46.4
323.15 K	1001	1003	1008	1009	192.3	118.4	44.3	37.5
328.15 K	998	1001	1005	1006	150.4	94.1	36.1	30.6
333.15 K	996	998	1003	1003	119.5	76	29.8	25.3
338.15 K	993	995	1000	1000	95.6	61.7	24.7	21
343.15 K	990	992	997	997	77.6	50.7	20.7	17.7
